Measurements from patent publication US11919901B2 (Syndax Pharmaceuticals, Inc., priority 2021, dated 2024).

Experiments:
Menin-MLL = Menin-MLL (Homo sapiens (Human), UniProt O00255); assay: Determination of binding constants (Ki) to Menin-MLL (HTRF); settings: HTRF, 0.25 nM H-FL-Menin, 3.2 nM FITC-MLL-4-43, 24 hr incubation; for Ki: read-out: Menin-MLL Ki HTRF Assay: Ki
hERG = hERG (Homo sapiens (Human), UniProt Q12809); assay: Patch clamp assay (hERG tail currents, whole-cell); assay type: cell-based; settings: hERG transfected HEK 293 cells; for hERG % Remaining 30 μM: 30 μM compound; for hERG % Remaining 10 μM: 10 μM compound
Sequence of hERG (Q12809 whole entry): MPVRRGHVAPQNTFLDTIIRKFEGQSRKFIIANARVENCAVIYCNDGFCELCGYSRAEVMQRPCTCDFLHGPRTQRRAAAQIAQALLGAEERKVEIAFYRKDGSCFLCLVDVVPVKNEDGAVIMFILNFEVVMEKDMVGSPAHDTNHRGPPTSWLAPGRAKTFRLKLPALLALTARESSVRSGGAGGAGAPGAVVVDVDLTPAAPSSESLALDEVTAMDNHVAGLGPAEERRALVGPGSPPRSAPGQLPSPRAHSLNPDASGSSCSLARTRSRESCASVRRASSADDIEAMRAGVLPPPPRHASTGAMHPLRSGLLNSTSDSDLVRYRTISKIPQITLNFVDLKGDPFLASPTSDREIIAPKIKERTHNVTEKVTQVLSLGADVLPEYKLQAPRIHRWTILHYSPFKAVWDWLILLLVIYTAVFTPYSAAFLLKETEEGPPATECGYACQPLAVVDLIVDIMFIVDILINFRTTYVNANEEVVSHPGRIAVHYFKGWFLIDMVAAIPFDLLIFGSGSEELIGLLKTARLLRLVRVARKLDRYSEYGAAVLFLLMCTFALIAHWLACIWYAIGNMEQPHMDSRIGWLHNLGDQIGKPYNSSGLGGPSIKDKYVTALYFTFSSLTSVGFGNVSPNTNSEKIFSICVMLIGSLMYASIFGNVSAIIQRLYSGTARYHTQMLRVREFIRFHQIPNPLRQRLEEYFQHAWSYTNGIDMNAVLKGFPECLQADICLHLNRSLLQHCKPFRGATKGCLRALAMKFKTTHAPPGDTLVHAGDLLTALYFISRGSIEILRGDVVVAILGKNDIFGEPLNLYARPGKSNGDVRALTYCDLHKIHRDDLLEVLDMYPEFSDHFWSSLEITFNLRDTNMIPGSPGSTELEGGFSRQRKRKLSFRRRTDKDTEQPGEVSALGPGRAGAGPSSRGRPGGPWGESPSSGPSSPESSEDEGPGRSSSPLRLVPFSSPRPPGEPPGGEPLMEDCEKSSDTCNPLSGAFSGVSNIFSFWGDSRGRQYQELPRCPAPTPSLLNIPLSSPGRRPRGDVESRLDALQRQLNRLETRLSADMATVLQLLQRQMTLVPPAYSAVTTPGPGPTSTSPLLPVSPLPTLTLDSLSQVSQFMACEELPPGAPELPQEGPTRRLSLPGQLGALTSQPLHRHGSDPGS

Sequence of Menin-MLL (O00255 whole entry): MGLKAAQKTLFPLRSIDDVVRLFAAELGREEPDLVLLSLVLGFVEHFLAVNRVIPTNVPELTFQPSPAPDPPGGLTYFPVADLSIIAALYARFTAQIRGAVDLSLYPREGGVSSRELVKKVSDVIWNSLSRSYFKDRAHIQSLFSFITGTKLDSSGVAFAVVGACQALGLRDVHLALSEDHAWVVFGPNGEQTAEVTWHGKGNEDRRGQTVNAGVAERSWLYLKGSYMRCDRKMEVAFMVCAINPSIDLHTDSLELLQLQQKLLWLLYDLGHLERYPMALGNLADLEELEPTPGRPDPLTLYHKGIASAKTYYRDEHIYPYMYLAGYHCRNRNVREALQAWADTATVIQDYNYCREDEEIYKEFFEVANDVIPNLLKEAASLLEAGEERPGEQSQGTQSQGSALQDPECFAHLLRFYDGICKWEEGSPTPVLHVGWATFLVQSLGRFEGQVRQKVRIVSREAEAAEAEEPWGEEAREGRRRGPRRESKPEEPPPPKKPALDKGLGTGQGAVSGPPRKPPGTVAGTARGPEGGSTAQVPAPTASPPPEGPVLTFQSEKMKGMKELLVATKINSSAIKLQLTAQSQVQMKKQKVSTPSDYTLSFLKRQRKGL

CC(C)N(CC(F)F)C(=O)c1cc(F)ccc1Oc1cncnc1N1CC2(CCN(C[C@@H]3CC[C@@H](NS(=O)(=O)N(C)CCCO)CO3)CC2)C1 [Compound 214, N-(2,2-difluoroethyl)-5-fluoro-2-((4-(7-(((2S,5R)-5-((N-(3-hydroxypropyl)-N-methylsulfamoyl)amino)tetrahydro-2H-pyran-2-yl)methyl)-2,7-diazaspiro[3.5]nonan-2-yl)pyrimidin-5-yl)oxy)-N-isopropylbenzamide]
Ki (Menin-MLL): < 1 nM | hERG % Remaining 30 μM (hERG): +++ (“+++” means ≥66%)

CC(C)N(CC(F)F)C(=O)c1cc(F)ccc1Oc1cncnc1N1CC2(CCN(C[C@@H]3CC[C@@H](NS(=O)(=O)C4CC4)CO3)CC2)C1 [Compound 47, 2-((4-(7-(((2S,5R)-5-(cyclopropanesulfonamido)tetrahydro-2H-pyran-2-yl)methyl)-2,7-diazaspiro[3.5]nonan-2-yl)pyrimidin-5-yl)oxy)-N-(2,2-difluoroethyl)-5-fluoro-N-isopropylbenzamide]
EC50 (Menin-MLL): < 50 nM | Ki (Menin-MLL): < 1 nM | hERG % Remaining 10 μM (hERG): +++ (“+++” means ≥66%) | hERG % Remaining 30 μM (hERG): ++ (“++” means ≥33% and <66%)

CNS(=O)(=O)N[C@@H]1CC[C@@H](CN2CCC3(CC2)CN(c2ncncc2Oc2ccc(F)cc2C(=O)N(CC(F)F)C(C)C)C3)OC1 [Compound 102, N-(2,2-Difluoroethyl)-5-fluoro-N-isopropyl-2-((4-(7-(((2S,5R)-5-((N-methylsulfamoyl)amino)tetrahydro-2H-pyran-2-yl)methyl)-2,7-diazaspiro[3.5]nonan-2-yl)pyrimidin-5-yl)oxy)benzamide]
Ki (Menin-MLL): < 1 nM | hERG % Remaining 30 μM (hERG): +++ (“+++” means ≥66%) | IC50 (hERG): ≥ 50000 nM

CC(C)N(C(=O)c1cc(F)ccc1Oc1cncnc1N1CC2(CCN(C[C@@H]3CC[C@@H](NS(=O)(=O)C4COC4)CO3)CC2)C1)C(C)C [Compound 16, 5-fluoro-N,N-diisopropyl-2-((4-(7-(((2S,5R)-5-(oxetane-3-sulfonamido)tetrahydro-2H-pyran-2-yl)methyl)-2,7-diazaspiro[3.5]nonan-2-yl)pyrimidin-5-yl)oxy)benzamide]
EC50 (Menin-MLL): < 50 nM | Ki (Menin-MLL): < 1 nM | hERG % Remaining 10 μM (hERG): +++ (“+++” means ≥66%) | hERG % Remaining 30 μM (hERG): +++ (“+++” means ≥66%)

CCN(C(=O)c1cc(F)ccc1Oc1cncnc1N1CC2(CCN(C[C@@H]3CC[C@@H](NS(=O)(=O)N(C)C)CO3)CC2)C1)C(C)C [Compound 49, 2-((4-(7-(((2S,5R)-5-((N,N-dimethylsulfamoyl)amino)tetrahydro-2H-pyran-2-yl)methyl)-2,7-diazaspiro[3.5]nonan-2-yl)pyrimidin-5-yl)oxy)-N-ethyl-5-fluoro-N-isopropylbenzamide]
EC50 (Menin-MLL): < 50 nM | Ki (Menin-MLL): < 1 nM | hERG % Remaining 10 μM (hERG): +++ (“+++” means ≥66%) | hERG % Remaining 30 μM (hERG): +++ (“+++” means ≥66%) | IC50 (hERG): ≥ 50000 nM

CCNS(=O)(=O)N[C@@H]1CC[C@@H](CN2CCC3(CC2)CN(c2ncncc2Oc2ccc(F)cc2C(=O)N2[C@H](C)COC[C@H]2C)C3)OC1 [Compound 125, {[(3R,6S)-6-{[2-(5-{2-[(3R,5R)-3,5-Dimethylmorpholine-4-carbonyl]-4-fluorophenoxy}pyrimidin-4-yl)-2,7-diazaspiro[3.5]nonan-7-yl]methyl}oxan-3-yl]sulfamoyl}(ethyl)amine]
Ki (Menin-MLL): < 1 nM | hERG % Remaining 30 μM (hERG): +++ (“+++” means ≥66%)

CCNS(=O)(=O)N[C@@H]1CC[C@@H](CN2CCC3(CC2)CN(c2ncncc2Oc2ccc(F)cc2C(=O)N(C(C)C)C2CC2)C3)OC1 [Compound 145, N-Cyclopropyl-2-((4-(7-(((2S,5R)-5-((N-ethylsulfamoyl)amino)tetrahydro-2H-pyran-2-yl)methyl)-2,7-diazaspiro[3.5]nonan-2-yl)pyrimidin-5-yl)oxy)-5-fluoro-N-isopropylbenzamide]
Ki (Menin-MLL): < 1 nM | hERG % Remaining 30 μM (hERG): +++ (“+++” means ≥66%)

CCN(C(=O)c1cc(F)ccc1Oc1cncnc1N1CC2(CCN(C[C@@H]3CC[C@@H](NS(=O)(=O)N4CCC[C@H]4C)CO3)CC2)C1)C(C)C [Compound 200, N-Ethyl-5-fluoro-N-isopropyl-2-((4-(7-(((2S,5R)-5-(((R)-2-methylpyrrolidine)-1-sulfonamido)tetrahydro-2H-pyran-2-yl)methyl)-2,7-diazaspiro[3.5]nonan-2-yl)pyrimidin-5-yl)oxy)benzamide]
Ki (Menin-MLL): < 1 nM | hERG % Remaining 10 μM (hERG): ++ (“++” means ≥33% and <66%) | hERG % Remaining 30 μM (hERG): + (“+” means <33%)

C[C@@H]1COC[C@H](C)N1C(=O)c1cc(F)ccc1Oc1cncnc1N1CC2(CCN(C[C@@H]3CC[C@@H](NS(=O)(=O)c4ccccc4)CO3)CC2)C1 [Compound 130, N-((3R,6S)-6-((2-(5-(2-((3S,5R)-3,5-Dimethylmorpholine-4-carbonyl)-4-fluorophenoxy)pyrimidin-4-yl)-2,7-diazaspiro[3.5]nonan-7-yl)methyl)tetrahydro-2H-pyran-3-yl)benzenesulfonamide]
EC50 (Menin-MLL): < 50 nM | Ki (Menin-MLL): < 1 nM | hERG % Remaining 10 μM (hERG): +++ (“+++” means ≥66%) | hERG % Remaining 30 μM (hERG): ++ (“++” means ≥33% and <66%)

CC(C)N(CC(F)F)C(=O)c1cc(F)ccc1Oc1cncnc1N1CC2(CCN(C[C@@H]3CC[C@@H](NS(=O)(=O)N4CCOCC4)CO3)CC2)C1 [Compound 94, N-(2,2-Difluoroethyl)-5-fluoro-N-isopropyl-2-((4-(7-(((2S,5R)-5-(morpholine-4-sulfonamido)tetrahydro-2H-pyran-2-yl)methyl)-2,7-diazaspiro[3.5]nonan-2-yl)pyrimidin-5-yl)oxy)benzamide]
EC50 (Menin-MLL): < 50 nM | Ki (Menin-MLL): < 1 nM | hERG % Remaining 10 μM (hERG): +++ (“+++” means ≥66%) | hERG % Remaining 30 μM (hERG): ++ (“++” means ≥33% and <66%)

CC(C)N(C(=O)c1cc(F)ccc1Oc1cncnc1N1CC2(CCN(C[C@@H]3CC[C@@H](NS(=O)(=O)N4CCC4)CO3)CC2)C1)C1CC(F)(F)C1 [Compound 118, 2-((4-(7-(((2S,5R)-5-(Azetidine-1-sulfonamido)tetrahydro-2H-pyran-2-yl)methyl)-2,7-diazaspiro[3.5]nonan-2-yl)pyrimidin-5-yl)oxy)-N-(3,3-difluorocyclobutyl)-5-fluoro-N-isopropylbenzamide]
Ki (Menin-MLL): < 1 nM | hERG % Remaining 10 μM (hERG): ++ (“++” means ≥33% and <66%) | hERG % Remaining 30 μM (hERG): + (“+” means <33%)

CC(C)N(CCC#N)C(=O)c1cc(F)ccc1Oc1cncnc1N1CC2(CCN(C[C@@H]3CC[C@@H](NS(=O)(=O)c4ccccc4)CO3)CC2)C1 [Compound 136, N-(2-Cyanoethyl)-5-fluoro-N-isopropyl-2-((4-(7-(((2S,5R)-5-(phenylsulfonamido)tetrahydro-2H-pyran-2-yl)methyl)-2,7-diazaspiro[3.5]nonan-2-yl)pyrimidin-5-yl)oxy)benzamide]
EC50 (Menin-MLL): < 50 nM | Ki (Menin-MLL): < 1 nM | hERG % Remaining 10 μM (hERG): +++ (“+++” means ≥66%) | hERG % Remaining 30 μM (hERG): + (“+” means <33%)

CCN(C(=O)c1cc(F)ccc1Oc1cncnc1N1CC2(CCN(C[C@@H]3CC[C@@H](NC(=O)OC(C)(C)C)CO3)CC2)C1)C(C)C [Compound 11, tert-butyl ((3R,6S)-6-((2-(5-(2-(ethyl(isopropyl)carbamoyl)-4-fluorophenoxy)pyrimidin-4-yl)-2,7-diazaspiro[3.5]nonan-7-yl)methyl)tetrahydro-2H-pyran-3-yl)carbamate]
EC50 (Menin-MLL): < 50 nM | Ki (Menin-MLL): < 1 nM | hERG % Remaining 10 μM (hERG): + (“+” means <33%) | hERG % Remaining 30 μM (hERG): + (“+” means <33%)

C[C@@H]1COC[C@@H](C)N1C(=O)c1cc(F)ccc1Oc1cncnc1N1CC2(CCN(C[C@@H]3CC[C@@H](NS(=O)(=O)N(C)C)CO3)CC2)C1 [Compound 123, {[(3R,6S)-6-{[2-(5-{2-[(3R,5R)-3,5-Dimethylmorpholine-4-carbonyl]-4-fluorophenoxy}pyrimidin-4-yl)-2,7-diazaspiro[3.5]nonan-7-yl]methyl}oxan-3-yl]sulfamoyl}dimethylamine]
Ki (Menin-MLL): < 1 nM | hERG % Remaining 30 μM (hERG): +++ (“+++” means ≥66%)

CC(C)N(CCC#N)C(=O)c1cc(F)ccc1Oc1cncnc1N1CC2(CCN(C[C@@H]3CC[C@@H](NS(=O)(=O)N(C)C)CO3)CC2)C1 [Compound 183, N-(2-Cyanoethyl)-2-((4-(7-(((2S,5R)-5-((N,N-dimethylsulfamoyl)amino)tetrahydro-2H-pyran-2-yl)methyl)-2,7-diazaspiro[3.5]nonan-2-yl)pyrimidin-5-yl)oxy)-5-fluoro-N-isopropylbenzamide]
Ki (Menin-MLL): < 1 nM | hERG % Remaining 30 μM (hERG): +++ (“+++” means ≥66%)

CCNS(=O)(=O)N[C@@H]1CC[C@@H](CN2CCC3(CC2)CN(c2ncnnc2Oc2ccc(F)cc2C(=O)N(CC(F)(F)F)C(C)C)C3)OC1 (single isomer, unassigned) [Compound 193]
Ki (Menin-MLL): < 1 nM | hERG % Remaining 30 μM (hERG): +++ (“+++” means ≥66%) | IC50 (hERG): ≥ 50000 nM

CC(C)N(CC(F)F)C(=O)c1cc(F)ccc1Oc1cncnc1N1CC2(CCN(C[C@@H]3CC[C@@H](NS(=O)(=O)N4CCC4)CO3)CC2)C1 [Compound 99, 2-((4-(7-(((2S,5R)-5-(Azetidine-1-sulfonamido)tetrahydro-2H-pyran-2-yl)methyl)-2,7-diazaspiro[3.5]nonan-2-yl)pyrimidin-5-yl)oxy)-N-(2,2-difluoroethyl)-5-fluoro-N-isopropylbenzamide]
Ki (Menin-MLL): < 1 nM | hERG % Remaining 10 μM (hERG): +++ (“+++” means ≥66%) | hERG % Remaining 30 μM (hERG): ++ (“++” means ≥33% and <66%)

CC(C)N(C(=O)c1cc(F)ccc1Oc1cncnc1N1CC2(CCN(C[C@@H]3CC[C@@H](NS(=O)(=O)N4CCC4)CO3)CC2)C1)C(C)C [Compound 88, 2-((4-(7-(((2S,5R)-5-(Azetidine-1-sulfonamido)tetrahydro-2H-pyran-2-yl)methyl)-2,7-diazaspiro[3.5]nonan-2-yl)pyrimidin-5-yl)oxy)-5-fluoro-N,N-diisopropylbenzamide]
Ki (Menin-MLL): < 1 nM | hERG % Remaining 30 μM (hERG): +++ (“+++” means ≥66%)
